Laboratory results: ChEMBL document CHEMBL5705896 (ACS Chem Biol, 2013)
pIC50, pKi: −log10 of the molar value. Activity calls are given as the source filed them. The calls are words filed in the database; no cut-off is given here.

Key:
[1] = biological target: Ephrin type-A receptor 2 (Homo sapiens) (UniProt P29317); test: Inhibition of human cytoplasmic domain N-terminal GST tagged EPHA2 (572 to 976 end residues) expressed in baculovirus expression system using Blk/lyntide as substrate at 10 uM by mobility shift assay relative to control
[2] = biological target: Insulin-like growth factor 1 receptor (Homo sapiens) (UniProt P08069); test: Inhibition of human cytoplasmic domain N-terminal GST tagged IGF1R (959 to 1367 end residues) expressed in baculovirus expression system using IRS1 as substrate at 10 uM by mobility shift assay relative to control
Insulin-like growth factor 1 receptor (Homo sapiens), sequence (P08069 31-736 limits assumed): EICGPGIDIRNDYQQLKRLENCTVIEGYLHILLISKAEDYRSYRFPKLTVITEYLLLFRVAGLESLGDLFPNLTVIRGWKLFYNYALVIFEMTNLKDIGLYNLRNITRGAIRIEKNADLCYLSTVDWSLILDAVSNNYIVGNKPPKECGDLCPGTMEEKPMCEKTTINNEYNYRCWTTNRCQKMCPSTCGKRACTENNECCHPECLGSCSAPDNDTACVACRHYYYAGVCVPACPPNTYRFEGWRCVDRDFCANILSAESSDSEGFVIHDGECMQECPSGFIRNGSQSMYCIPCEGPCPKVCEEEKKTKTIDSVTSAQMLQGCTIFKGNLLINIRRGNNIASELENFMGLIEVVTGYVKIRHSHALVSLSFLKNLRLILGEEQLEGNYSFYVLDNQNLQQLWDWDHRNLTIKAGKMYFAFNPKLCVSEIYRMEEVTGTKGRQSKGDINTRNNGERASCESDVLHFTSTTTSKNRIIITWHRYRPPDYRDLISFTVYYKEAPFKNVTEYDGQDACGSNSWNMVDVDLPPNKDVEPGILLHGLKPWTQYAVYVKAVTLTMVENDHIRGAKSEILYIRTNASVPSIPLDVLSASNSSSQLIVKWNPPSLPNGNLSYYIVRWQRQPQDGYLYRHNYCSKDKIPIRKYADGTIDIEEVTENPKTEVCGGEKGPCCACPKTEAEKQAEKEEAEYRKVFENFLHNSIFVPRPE
Insulin-like growth factor 1 receptor (Homo sapiens), sequence (P08069 741-1367 limits assumed): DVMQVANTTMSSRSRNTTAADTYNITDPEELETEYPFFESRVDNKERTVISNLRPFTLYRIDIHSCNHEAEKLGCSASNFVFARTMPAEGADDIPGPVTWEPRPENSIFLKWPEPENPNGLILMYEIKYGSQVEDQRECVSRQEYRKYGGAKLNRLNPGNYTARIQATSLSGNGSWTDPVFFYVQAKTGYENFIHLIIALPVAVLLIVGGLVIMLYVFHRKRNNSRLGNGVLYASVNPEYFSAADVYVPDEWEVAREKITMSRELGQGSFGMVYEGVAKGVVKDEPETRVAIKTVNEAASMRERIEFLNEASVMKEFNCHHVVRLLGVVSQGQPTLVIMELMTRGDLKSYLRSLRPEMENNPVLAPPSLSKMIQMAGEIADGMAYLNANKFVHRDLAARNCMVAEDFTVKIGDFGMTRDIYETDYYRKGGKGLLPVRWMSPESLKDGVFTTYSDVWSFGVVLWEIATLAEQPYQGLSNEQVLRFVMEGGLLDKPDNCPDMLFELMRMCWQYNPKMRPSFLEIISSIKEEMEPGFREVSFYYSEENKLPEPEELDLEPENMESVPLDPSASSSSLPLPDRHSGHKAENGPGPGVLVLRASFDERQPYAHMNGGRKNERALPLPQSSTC

[3] = biological target: Hepatocyte growth factor receptor (Homo sapiens) (UniProt P08581); test: Inhibition of human cytoplasmic domain N-terminal GST tagged MET (956 to 1390 end residues) expressed in baculovirus expression system using Srctide as substrate at 10 uM by mobility shift assay relative to control
[4] = biological target: Angiopoietin-1 receptor (Homo sapiens) (UniProt Q02763); test: Inhibition of human cytoplasmic domain N-terminal GST tagged TIE2 (771 to 1124 end residues) expressed in baculovirus expression system using Blk/lyntide as substrate at 10 uM by mobility shift assay relative to control
Angiopoietin-1 receptor (Homo sapiens), sequence (Q02763 whole entry, the tested form may be a part): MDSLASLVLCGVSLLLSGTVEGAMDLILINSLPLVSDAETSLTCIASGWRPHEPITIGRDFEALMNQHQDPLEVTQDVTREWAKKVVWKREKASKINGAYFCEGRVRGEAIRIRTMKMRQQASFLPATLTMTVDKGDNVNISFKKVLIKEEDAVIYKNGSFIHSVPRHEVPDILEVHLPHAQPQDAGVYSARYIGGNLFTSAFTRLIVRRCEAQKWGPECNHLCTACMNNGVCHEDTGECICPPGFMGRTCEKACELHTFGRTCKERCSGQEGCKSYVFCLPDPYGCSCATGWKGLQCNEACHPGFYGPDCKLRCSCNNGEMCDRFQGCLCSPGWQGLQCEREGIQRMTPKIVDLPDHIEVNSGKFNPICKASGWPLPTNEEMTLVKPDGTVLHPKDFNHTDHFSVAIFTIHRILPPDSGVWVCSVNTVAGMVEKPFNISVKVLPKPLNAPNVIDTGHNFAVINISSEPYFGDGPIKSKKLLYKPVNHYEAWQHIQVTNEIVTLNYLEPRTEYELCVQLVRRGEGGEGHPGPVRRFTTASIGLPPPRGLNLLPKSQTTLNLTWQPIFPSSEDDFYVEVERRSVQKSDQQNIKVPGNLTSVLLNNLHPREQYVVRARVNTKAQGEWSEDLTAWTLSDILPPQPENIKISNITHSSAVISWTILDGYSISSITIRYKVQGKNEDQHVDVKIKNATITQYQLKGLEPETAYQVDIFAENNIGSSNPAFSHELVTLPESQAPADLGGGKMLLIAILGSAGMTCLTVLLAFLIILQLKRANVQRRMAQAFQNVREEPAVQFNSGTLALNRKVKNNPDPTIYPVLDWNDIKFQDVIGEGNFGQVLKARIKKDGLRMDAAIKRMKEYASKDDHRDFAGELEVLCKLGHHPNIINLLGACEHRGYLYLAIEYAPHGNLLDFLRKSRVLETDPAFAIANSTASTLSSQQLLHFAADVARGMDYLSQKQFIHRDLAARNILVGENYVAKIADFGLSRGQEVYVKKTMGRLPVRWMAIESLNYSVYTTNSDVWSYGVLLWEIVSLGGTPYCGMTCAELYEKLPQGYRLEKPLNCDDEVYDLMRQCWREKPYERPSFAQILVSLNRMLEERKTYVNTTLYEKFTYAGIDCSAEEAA

[5] = biological target: Serine/threonine-protein kinase Chk1 (Homo sapiens) (UniProt O14757); test: Inhibition of full length human N-terminal GST tagged CHK1 (1 to 476 end residues) expressed in baculovirus expression system using chk-tide as substrate at 10 uM by mobility shift assay relative to control
[6] = biological target: Casein kinase I isoform epsilon (Homo sapiens) (UniProt P49674); test: Inhibition of human catalytic domain N-terminal GST tagged CK1epsilon (1 to 348 residues) expressed in baculovirus expression system using ck-tide as substrate at 10 uM by mobility shift assay relative to control
Casein kinase I isoform epsilon (Homo sapiens), sequence (P49674 whole entry, looked up, the tested form may be a part, canonical isoform): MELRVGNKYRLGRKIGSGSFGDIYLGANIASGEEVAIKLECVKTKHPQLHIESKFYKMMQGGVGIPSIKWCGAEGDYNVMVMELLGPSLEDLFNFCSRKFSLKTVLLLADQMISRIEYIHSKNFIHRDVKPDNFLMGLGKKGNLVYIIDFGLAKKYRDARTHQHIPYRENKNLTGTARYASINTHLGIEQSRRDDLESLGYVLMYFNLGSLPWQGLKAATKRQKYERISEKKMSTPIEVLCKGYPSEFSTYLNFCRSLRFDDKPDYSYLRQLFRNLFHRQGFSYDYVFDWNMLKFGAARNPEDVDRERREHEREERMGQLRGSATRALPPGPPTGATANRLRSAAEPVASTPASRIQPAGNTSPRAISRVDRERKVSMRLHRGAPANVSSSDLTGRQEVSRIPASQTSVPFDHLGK

[7] = biological target: Death-associated protein kinase 1 (Homo sapiens) (UniProt P53355); test: Inhibition of human catalytic domain N-terminal GST tagged DAPK1 (1 to 289 residues) expressed in baculovirus expression system using DAPK1tide as substrate at 10 uM by mobility shift assay relative to control
[8] = biological target: Dual specificity tyrosine-phosphorylation-regulated kinase 1B (Homo sapiens) (UniProt Q9Y463); test: Inhibition of full length human N-terminal GST tagged DYRK1B (1 to 629 end residues) expressed in baculovirus expression system using DYRKtide-F as substrate at 10 uM by mobility shift assay relative to control
[9] = biological target: Mitogen-activated protein kinase 1 (Homo sapiens) (UniProt P28482); test: Inhibition of full length human N-terminal GST tagged Erk2 (1 to 360 end residues) expressed in Escherichia coli expression system using modified Erktide as substrate at 10 uM by mobility shift assay relative to control
[10] = biological target: Mitogen-activated protein kinase 14 (Homo sapiens) (UniProt Q16539); test: Inhibition of truncated human N-terminal GST-tagged p38 alpha (9 to 352 residues) expressed in Escherichia coli expression system using modified Erktide as substrate at 10 uM by mobility shift assay relative to control
[11] = biological target: Serine/threonine-protein kinase PAK 2 (Homo sapiens) (UniProt Q13177); test: Inhibition of full length human N-terminal GST tagged PAK2 (1 to 524 end residues) expressed in baculovirus expression system using DAPK1tide as substrate at 10 uM by mobility shift assay relative to control
Serine/threonine-protein kinase PAK 2 (Homo sapiens), sequence (Q13177 whole entry, the tested form may be a part): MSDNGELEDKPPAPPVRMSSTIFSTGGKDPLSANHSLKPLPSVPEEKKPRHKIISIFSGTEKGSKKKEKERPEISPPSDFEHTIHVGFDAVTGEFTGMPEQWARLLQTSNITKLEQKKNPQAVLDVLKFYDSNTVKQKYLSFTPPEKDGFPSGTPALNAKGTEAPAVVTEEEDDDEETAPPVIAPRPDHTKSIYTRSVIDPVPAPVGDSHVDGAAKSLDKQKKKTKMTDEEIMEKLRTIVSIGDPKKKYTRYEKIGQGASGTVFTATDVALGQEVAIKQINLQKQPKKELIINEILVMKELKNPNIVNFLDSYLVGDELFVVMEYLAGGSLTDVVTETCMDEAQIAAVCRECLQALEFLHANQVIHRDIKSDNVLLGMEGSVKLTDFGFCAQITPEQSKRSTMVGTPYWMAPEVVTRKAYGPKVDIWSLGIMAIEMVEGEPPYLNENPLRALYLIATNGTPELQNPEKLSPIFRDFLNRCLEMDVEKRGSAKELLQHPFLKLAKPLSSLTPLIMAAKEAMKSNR

[12] = biological target: Rho-associated protein kinase 1 (Homo sapiens) (UniProt Q13464); test: Inhibition of human catalytic domain N-terminal GST tagged ROCK1 (1 to 477 residues) expressed in baculovirus expression system using LIMKtide as substrate at 10 uM by mobility shift assay relative to control
[13] = biological target: 5-hydroxytryptamine receptor 2C (Homo sapiens) (UniProt P28335); test: Inhibition of 5-HT2C receptor (unknown origin) at 10 uM by radioligand binding assay relative to control
5-hydroxytryptamine receptor 2C (Homo sapiens), sequence (P28335 whole entry): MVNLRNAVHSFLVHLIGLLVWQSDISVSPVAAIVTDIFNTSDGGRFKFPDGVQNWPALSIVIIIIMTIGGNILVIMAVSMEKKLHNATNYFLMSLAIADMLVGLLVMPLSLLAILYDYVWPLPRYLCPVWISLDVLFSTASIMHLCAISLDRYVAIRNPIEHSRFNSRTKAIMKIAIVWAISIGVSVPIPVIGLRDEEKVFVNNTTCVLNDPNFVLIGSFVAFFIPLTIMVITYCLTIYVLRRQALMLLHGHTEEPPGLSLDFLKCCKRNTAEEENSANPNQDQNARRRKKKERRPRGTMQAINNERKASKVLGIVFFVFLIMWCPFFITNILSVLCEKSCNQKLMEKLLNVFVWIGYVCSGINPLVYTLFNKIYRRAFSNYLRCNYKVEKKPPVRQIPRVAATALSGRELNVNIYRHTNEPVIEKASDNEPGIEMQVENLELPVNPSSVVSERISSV

[14] = biological target: D(1A) dopamine receptor (Homo sapiens) (UniProt P21728); test: Inhibition of dopamine D1 receptor (unknown origin) at 10 uM by radioligand binding assay relative to control
[15] = biological target: Muscarinic acetylcholine receptor M2 (Homo sapiens) (UniProt P08172); test: Inhibition of M2 receptor (unknown origin) at 10 uM by radioligand binding assay relative to control
[16] = biological target: Mu-type opioid receptor (Homo sapiens) (UniProt P35372); test: Inhibition of MOR (unknown origin) at 10 uM by radioligand binding assay relative to control
Mu-type opioid receptor (Homo sapiens), sequence (P35372 whole entry): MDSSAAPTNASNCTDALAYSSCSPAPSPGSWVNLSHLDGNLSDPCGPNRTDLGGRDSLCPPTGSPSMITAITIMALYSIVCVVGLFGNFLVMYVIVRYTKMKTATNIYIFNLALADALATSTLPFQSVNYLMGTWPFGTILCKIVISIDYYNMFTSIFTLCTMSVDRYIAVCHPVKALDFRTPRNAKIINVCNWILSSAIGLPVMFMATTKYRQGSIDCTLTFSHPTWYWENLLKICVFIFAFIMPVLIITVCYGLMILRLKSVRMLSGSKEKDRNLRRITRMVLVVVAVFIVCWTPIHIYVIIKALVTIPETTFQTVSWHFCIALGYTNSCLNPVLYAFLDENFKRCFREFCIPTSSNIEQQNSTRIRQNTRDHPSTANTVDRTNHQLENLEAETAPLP

[17] = biological target: Sigma intracellular receptor 2 (Homo sapiens, UniProt Q5BJF2); test: Binding affinity to sigma 2 receptor (unknown origin) assessed as inhibition constant
Sigma intracellular receptor 2, sequence (Q5BJF2 whole entry): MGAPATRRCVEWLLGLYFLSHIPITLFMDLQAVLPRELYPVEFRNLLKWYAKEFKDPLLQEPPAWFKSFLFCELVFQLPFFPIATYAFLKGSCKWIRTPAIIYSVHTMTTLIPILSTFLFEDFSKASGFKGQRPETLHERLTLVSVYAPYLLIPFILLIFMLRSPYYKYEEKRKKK

[18] = biological target: Histone-lysine N-methyltransferase SUV39H2 (Homo sapiens, UniProt Q9H5I1); test: Inhibition of SUV39H2 (unknown origin) using [3H-SAM] as substrate incubated for 1 hr by scintillation proximity assay
[19] = biological target: N-lysine methyltransferase KMT5A (Homo sapiens, UniProt Q9NQR1); test: Inhibition of SETD8 (unknown origin) using [3H-SAM] as substrate incubated for 1 hr by scintillation proximity assay
N-lysine methyltransferase KMT5A, sequence (Q9NQR1 whole entry): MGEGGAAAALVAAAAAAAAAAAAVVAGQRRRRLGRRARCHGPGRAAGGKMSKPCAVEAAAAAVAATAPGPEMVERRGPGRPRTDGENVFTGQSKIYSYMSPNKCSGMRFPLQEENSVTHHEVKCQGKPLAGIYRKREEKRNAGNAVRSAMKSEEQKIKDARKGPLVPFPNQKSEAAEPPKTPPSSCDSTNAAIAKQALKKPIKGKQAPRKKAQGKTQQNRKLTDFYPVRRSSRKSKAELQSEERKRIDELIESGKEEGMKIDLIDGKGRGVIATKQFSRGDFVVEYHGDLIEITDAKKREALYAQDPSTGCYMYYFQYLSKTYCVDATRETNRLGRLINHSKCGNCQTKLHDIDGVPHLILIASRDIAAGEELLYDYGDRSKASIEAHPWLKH

[20] = biological target: Histone-lysine N-methyltransferase SETDB1 (Homo sapiens, UniProt Q15047); test: Inhibition of SETDB1 (unknown origin) using [3H-SAM] as substrate incubated for 1 hr by scintillation proximity assay
MCF7 = test: Effect on EZH2 level in human MCF7 cells at 5 uM incubated for 3 days by immunofluorescence staining based analysis; assay type: functional, cell-based; details: time 3.0 day
DB [21] = test: Antiproliferative activity against human DB cells assessed as reduction in cell viability at 100 to 5000 nM measured after 3 days by cell proliferation assay; assay type: functional, cell-based; details: dose 100-5000 nM, time 3.0 day
DB [22] = test: Antiproliferative activity against human DB cells assessed as reduction in cell viability at 3000 nM measured after 8 days by cell proliferation assay; assay type: functional, cell-based; details: time 8.0 day
[23] = Toxicity in Swiss albino mouse assessed as drug tolerance at 15 to 150 mg/kg administered as single ip dose measured upto 24 hrs; assay type: organism-based; details: in vivo, dose 15-150 mg/kg
[24] = Toxicity in Swiss albino mouse assessed as adverse effect at 15 to 150 mg/kg administered as single ip dose measured upto 24 hrs; assay type: organism-based; details: in vivo, dose 15-150 mg/kg
[25] = biological target: Sodium-dependent noradrenaline transporter (Homo sapiens, UniProt P23975)
Description: Binding affinity to NET (unknown origin) assessed as inhibition constant

[26] = biological target: 3-phosphoinositide-dependent protein kinase 1 (Homo sapiens) (UniProt O15530); test: Inhibition of full length human N-terminal GST tagged PDK1 (1 to 556 end residues) expressed in baculovirus expression system using T308tide as substrate at 10 uM by mobility shift assay relative to control

Q: For `CCCc1cc(C)[nH]c(=O)c1CNC(=O)c1cc(-c2ccc(N3CCN(C(C)C)CC3)nc2)cc2c1cnn2C(C)C`, which inhibition [1] is on record?
A: The inhibition was -6%.

Q: And the inhibition [2]?
A: The inhibition was -7%.

Q: And the inhibition [3]?
A: The inhibition was -3%.

Q: What about the inhibition [4] of the same compound?
A: Its inhibition is -6%.

Q: What about the inhibition [5] of the same compound?
A: Its inhibition is -2%.

Q: And the inhibition [6]?
A: Its inhibition is -4%.

Q: And the inhibition [7]?
A: The inhibition was -4%.

Q: And the inhibition [8]?
A: The inhibition was -4%.

Q: What about the inhibition [9] of the same compound?
A: Its inhibition is 3%.

Q: What about the inhibition [10] of the same compound?
A: The inhibition was 0%.

Q: What about the inhibition [11] of the same compound?
A: The inhibition was 4%.

Q: What about the inhibition [12] of the same compound?
A: Its inhibition is 5%.

Q: What about the inhibition [13] of the same compound?
A: The inhibition was 22%.

Q: What about the inhibition [14] of the same compound?
A: The inhibition was 13%.

Q: And the inhibition [15]?
A: Its inhibition is 41%.

Q: What about the inhibition [16] of the same compound?
A: The inhibition was 13%.

Q: And the pKi [17]?
A: Its pKi is 7.19.

Q: And the pIC50 [18]?
A: Its pIC50 is less than 4.00.

Q: What about the pIC50 [19] of the same compound?
A: Its pIC50 is less than 4.00.

Q: And the pIC50 [20]?
A: Its pIC50 is less than 4.00.

Q: And the Activity (MCF7)?
A: The Activity was “inactive”.

Q: What about the Activity (DB [21]) of the same compound?
A: Its Activity is “inactive”.

Q: What about the Activity (DB [22]) of the same compound?
A: The Activity was “Active”.

Q: And the Activity [23]?
A: The Activity was “Non-Toxic”.

Q: What about the Activity [24] of the same compound?
A: The Activity was “Non-Toxic”.

Q: And the pKi [25]?
A: The pKi was 5.82.

Q: And the inhibition [26]?
A: The inhibition was -6%.
